ChEMBL document CHEMBL1201862, “PubChem BioAssay data set” (2004)
The source made the active and inactive calls.

Columns and labels:
[1] = reduction of Shn3 3'UTR-driven luciferase in osteoblasts – cell-based, Clone20 osteoblasts, firefly luciferase, cherry-picked, dose response (AID 624132); assay type: functional;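 note: firefly luciferase luminescence from reporter carrying the Shn3 3'UTR in osteoblasts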
Protein skinhead-1 = target: T1, Protein skinhead-1 (Caenorhabditis elegans, UniProt P34707); assay type: functional
T1 sequence (P34707 whole entry): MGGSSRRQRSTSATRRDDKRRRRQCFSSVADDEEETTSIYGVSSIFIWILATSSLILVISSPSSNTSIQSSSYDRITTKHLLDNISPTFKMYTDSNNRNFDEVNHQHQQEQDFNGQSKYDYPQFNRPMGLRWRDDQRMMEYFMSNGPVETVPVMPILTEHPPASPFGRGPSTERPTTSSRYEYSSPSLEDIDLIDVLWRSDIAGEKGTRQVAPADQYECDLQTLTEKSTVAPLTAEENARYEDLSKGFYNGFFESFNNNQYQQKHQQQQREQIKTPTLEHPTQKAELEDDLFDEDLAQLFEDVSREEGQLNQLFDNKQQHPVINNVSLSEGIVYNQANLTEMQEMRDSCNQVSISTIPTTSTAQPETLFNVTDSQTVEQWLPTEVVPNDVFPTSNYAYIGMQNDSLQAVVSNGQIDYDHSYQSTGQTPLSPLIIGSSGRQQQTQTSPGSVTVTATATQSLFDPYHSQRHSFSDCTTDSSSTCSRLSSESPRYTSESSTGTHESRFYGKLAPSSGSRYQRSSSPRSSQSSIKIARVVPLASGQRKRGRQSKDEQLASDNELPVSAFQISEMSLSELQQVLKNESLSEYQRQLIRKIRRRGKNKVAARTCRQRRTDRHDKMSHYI

INS1 = experiment: INS-1E survival protection against cytokine death – cell-based, luminescence, retest, dose response (AID 449756); assay type: functional; settings: Rattus norvegicus;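 note: cell death triggered by IL-1 beta plus TNF-alpha plus IFN-gamma mixture; protective hits raise ATP signal compared with cytokine alone wells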
[2] = loss of viability in HepG2 cells – cell-based, CellTiter-Glo, cherry-picked, cytotoxicity control for Shn3 inhibitor project, dose response (AID 624134); assay type: functional
H4 = experiment: Luminescence Cell-Based Dose Response HTS to Identify Activators of 5'UTR Stem-Loop Driven Prion Protein mRNA Translation in H4 Neuroglioblastoma Cells. [Related pubchem assays: 1829 (Project Summary), 1814 (Primary HTS)]; assay type: functional; settings: Homo sapiens
[3] = Luminescence Cell-Based Dose Response HTS to Identify Activators of Luciferase Translation or Activity in H4 […] Cells. [Related pubchem assays: 1829 (Project Summary), 1814 (Primary HTS)]; assay type: functional
[4] = Luminescence Cell-Based Dose Confirmation HTS to Identify Activators of 5'UTR Stem-Loop Driven Alpha-Synuclein mRNA Translation in H4 Neuroglioblastoma Cells. [Related pubchem assays: 1829 (Project Summary), 1814 (Primary HTS)]; assay type: functional
[5] = target: T2, Corticotropin-releasing factor receptor 2/Corticotropin-releasing factor-binding protein (Homo sapiens, UniProt P24387+Q13324); experiment: activators of CRF receptor 2 with binding protein – uHTS hits, confirmation (AID 602473); assay type: functional; settings: read-out: EC50_Mean
T2 sequence (Q13324 whole entry): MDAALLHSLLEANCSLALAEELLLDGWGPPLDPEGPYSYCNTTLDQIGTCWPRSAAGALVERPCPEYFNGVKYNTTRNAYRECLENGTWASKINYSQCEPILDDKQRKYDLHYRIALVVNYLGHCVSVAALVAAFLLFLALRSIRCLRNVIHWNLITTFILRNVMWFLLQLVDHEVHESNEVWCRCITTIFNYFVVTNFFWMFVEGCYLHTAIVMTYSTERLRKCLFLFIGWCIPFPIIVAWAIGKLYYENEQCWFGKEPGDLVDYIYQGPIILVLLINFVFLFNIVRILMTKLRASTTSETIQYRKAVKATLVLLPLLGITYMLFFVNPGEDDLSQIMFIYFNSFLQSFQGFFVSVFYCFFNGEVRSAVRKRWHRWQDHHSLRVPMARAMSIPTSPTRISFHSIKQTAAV
T2 sequence (P24387 whole entry): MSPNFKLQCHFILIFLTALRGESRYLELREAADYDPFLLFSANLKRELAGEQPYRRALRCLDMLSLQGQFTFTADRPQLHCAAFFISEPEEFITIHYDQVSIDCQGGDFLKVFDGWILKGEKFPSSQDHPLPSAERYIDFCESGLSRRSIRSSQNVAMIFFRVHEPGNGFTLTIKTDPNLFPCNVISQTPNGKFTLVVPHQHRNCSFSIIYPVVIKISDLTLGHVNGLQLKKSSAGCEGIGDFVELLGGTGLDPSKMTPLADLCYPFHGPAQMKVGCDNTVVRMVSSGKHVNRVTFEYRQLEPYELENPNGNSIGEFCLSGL

[6] = target: T2, Corticotropin-releasing factor receptor 2/Corticotropin-releasing factor-binding protein; experiment: Dose Response confirmation of uHTS hits for small molecule antagonists of the CRF-binding protein and CRF-R2 receptor complex.; assay type: functional; settings: read-out: IC50_Mean
[7] = target: T3, Polyadenylate-binding protein 1 (Homo sapiens, UniProt P11940); experiment: MLLE domain peptide-binding blockers, IC50 – biochemical, fluorescence polarization, FITC-PAM2 peptide, dose response (AID 602259); assay type: functional; settings: read-out: IC50_Mean
[8] = target: T3, Polyadenylate-binding protein 1; experiment: MLLE binding blockers, Cy5 peptide tracer – biochemical, fluorescence polarization, Cy5-PAM2 peptide, secondary, miRNA deadenylation inhibitor project, dose response (AID 602260); assay type: functional; settings: read-out: IC50_Mean
[9] = target: Luciferin 4-monooxygenase (Photinus pyralis, UniProt P08659); experiment: inhibition of purified Photinus pyralis luciferase – biochemical, luminescence, dose response (AID 1891)
[10] = Luminescence Cell-Based Dose Confirmation HTS to Identify Inhibitors of Platelet Dense Granule Release. [Related pubchem assays: 1663 (Primary HTS), 1678 (Summary of Project)]; assay type: functional
Cytochrome P450 2C19 = Cytochrome P450 2C19 (Homo sapiens, UniProt P33261); experiment: Cytochrome panel assay with activity outcomes. Panel member name: p450-cyp2c19 Compounds with AC50 equal or less than 10 uM are considered active; assay type: functional; settings: read-out: AC50
Cytochrome P450 2C9 = Cytochrome P450 2C9 (Homo sapiens, UniProt P11712)
[11] = non-specific 3'UTR reporter inhibition in Clone20-Shn3RL – cell-based, Renilla luciferase, cherry-picked, counter-screen for Shn3 inhibitor project, dose response (AID 624133); assay type: functional

Chain of Luciferin 4-monooxygenase (P08659 whole entry): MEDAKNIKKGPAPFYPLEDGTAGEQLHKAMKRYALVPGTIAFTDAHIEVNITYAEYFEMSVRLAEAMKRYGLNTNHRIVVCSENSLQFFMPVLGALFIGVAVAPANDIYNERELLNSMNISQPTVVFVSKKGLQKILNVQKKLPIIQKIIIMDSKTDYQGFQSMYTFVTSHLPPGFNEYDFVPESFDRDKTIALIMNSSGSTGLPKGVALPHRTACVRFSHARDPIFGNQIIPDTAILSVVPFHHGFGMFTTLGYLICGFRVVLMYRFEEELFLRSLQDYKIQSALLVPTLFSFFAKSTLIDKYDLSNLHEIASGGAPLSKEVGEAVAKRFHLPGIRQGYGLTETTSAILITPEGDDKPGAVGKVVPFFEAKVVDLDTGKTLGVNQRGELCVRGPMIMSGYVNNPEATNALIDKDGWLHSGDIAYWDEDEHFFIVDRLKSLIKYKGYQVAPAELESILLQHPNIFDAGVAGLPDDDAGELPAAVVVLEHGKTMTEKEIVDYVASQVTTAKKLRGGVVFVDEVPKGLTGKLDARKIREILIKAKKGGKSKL
T3 sequence (P11940 whole entry, the tested form may be a part): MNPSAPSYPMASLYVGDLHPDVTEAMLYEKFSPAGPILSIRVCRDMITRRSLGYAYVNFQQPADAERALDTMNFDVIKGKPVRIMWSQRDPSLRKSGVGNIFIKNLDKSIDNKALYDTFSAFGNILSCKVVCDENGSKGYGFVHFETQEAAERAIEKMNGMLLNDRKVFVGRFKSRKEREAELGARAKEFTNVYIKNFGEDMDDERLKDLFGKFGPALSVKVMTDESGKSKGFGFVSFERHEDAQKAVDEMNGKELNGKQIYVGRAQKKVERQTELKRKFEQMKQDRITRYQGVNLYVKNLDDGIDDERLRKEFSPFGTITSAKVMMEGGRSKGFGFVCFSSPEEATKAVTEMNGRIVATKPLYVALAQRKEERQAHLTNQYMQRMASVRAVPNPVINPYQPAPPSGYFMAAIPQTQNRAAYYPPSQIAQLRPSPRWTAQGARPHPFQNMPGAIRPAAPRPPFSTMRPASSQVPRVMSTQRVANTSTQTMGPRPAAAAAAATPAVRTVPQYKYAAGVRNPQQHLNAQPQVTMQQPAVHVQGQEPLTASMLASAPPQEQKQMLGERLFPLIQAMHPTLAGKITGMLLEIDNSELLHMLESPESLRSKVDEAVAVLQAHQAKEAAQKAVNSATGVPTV
Chain of Cytochrome P450 2C19 (P33261 whole entry): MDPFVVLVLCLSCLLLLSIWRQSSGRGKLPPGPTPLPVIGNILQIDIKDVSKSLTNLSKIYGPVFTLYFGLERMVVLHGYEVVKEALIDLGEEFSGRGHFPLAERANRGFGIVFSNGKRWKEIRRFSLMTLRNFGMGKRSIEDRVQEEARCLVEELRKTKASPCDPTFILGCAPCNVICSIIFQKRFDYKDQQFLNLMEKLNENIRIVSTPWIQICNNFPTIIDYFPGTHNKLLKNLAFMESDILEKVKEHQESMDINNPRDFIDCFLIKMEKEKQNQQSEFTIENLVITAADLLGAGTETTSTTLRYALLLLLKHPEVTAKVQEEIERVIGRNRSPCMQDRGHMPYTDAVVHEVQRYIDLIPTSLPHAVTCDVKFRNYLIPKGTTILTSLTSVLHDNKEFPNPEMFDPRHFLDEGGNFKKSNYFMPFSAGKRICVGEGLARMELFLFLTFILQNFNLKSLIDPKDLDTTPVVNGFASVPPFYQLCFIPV
Chain of Cytochrome P450 2C9 (P11712 whole entry): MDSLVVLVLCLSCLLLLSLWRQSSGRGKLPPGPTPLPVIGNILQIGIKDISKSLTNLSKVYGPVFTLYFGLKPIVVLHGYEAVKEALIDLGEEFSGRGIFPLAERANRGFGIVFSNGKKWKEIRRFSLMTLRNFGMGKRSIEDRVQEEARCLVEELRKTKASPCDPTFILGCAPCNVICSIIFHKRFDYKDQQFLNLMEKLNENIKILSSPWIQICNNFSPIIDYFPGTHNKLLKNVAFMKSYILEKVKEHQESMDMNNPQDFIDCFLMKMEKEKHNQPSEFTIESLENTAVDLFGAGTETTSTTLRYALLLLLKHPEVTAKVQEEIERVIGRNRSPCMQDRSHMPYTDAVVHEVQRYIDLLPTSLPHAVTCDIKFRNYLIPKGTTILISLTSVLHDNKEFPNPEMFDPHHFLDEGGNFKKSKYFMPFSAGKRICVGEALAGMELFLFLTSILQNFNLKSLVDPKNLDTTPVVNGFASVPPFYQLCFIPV

## CN(C)c1ccc(/C=C/c2ccc3ccccc3n2)cc1
[1]
  AC50: 1.33 µM (active)
Protein skinhead-1
  IC50: > 100 µM (inactive)
INS1
  AC50: 3.17 µM (active)
[2]
  AC50: 15.9 µM (active)

## COc1ccc(NC2CC(=O)N(C(C)C)C2=O)cc1 (centres undefined)
H4
  EC50: > 120 µM (not active)
[3]
  EC50: 18.8 µM (active)
[4]
  EC50: 5.94 µM (active)

## CCOc1ccc(NC(=O)[C@@H](NC(=O)c2ccccc2)[C@@H](C)CC)cc1
[5]
  EC50: > 53 µM (inactive)
[6]
  IC50: > 47.1 µM (inactive)

## Cc1cccc(C)c1OCC(O)Cn1nnc2ccccc21 (centres undefined)
[5]
  EC50: > 53 µM (inactive)
[6]
  IC50: > 47.1 µM (inactive)

## COc1ccc(Cc2nnc(NC(=O)C3CCCO3)s2)cc1OC (centres undefined)
[7]
  IC50: > 66 µM (inactive)
[8]
  IC50: > 66 µM (inactive)

## CCOC(=O)Cc1csc(NC(=S)NC(=O)c2ccccc2Br)n1
[7]
  IC50: > 66 µM (inactive)
[8]
  IC50: > 66 µM (inactive)

## Cc1sc(NC(=O)CCCC(=O)O)c(C(N)=O)c1-c1ccccc1
[7]
  IC50: > 66 µM (inactive)
[8]
  IC50: > 66 µM (inactive)

## Cc1cccc(NC(=O)c2cc(-c3ccc(C)s3)nc3ccccc23)n1
H4
  EC50: 9.88 µM (active)
[3]
  EC50: > 60 µM (not active)
[4]
  EC50: > 120 µM (not active)

## Cc1onc(-c2ccccc2Cl)c1C(=O)Nc1ccc(Br)cc1
[9]
  EC50: > 112 µM (not active)
[10]
  EC50: > 112 µM (not active)

## COc1ccc(CNC(=O)c2ccc(C(C)C)cc2)cc1
H4
  EC50: 80.9 µM (active)
[3]
  EC50: 0.16 µM (inconclusive)
[4]
  EC50: 53.5 µM (active)

## COC(=O)c1sc(NC(=O)c2ccc(C)o2)nc1C
[9]
  EC50: 5.6 µM (active)
[10]
  EC50: > 112 µM (not active)

## Fc1ccccc1C1CCN(Cc2nc(CC3CC3)no2)C1 (centres undefined)
H4
  EC50: 15.4 µM (active)
[3]
  EC50: 17.2 µM (active)
[4]
  EC50: 15 µM (active)

## CC(C)C(NS(=O)(=O)c1ccc2c(c1)oc(=O)n2C)C(=O)N1CCN(C2CCCCC2)CC1 (centres undefined)
[5]
  EC50: > 53 µM (inactive)
[6]
  IC50: > 47.1 µM (inactive)

## O=c1oc(-c2ccc([N+](=O)[O-])cc2)nc2ccc(O)cc12
[9]
  EC50: 0.995 µM (active)
[10]
  EC50: 1.72 µM (active)

## Cc1ccc(S(=O)(=O)c2cc3ccccc3oc2=O)cc1
H4
  EC50: > 120 µM (not active)
[4]
  EC50: > 120 µM (not active)

## Cc1cccc(NS(=O)(=O)c2cccc(C(=O)N3CCN(c4ccccn4)CC3)c2)c1
[5]
  EC50: > 53 µM (inactive)
[6]
  IC50: > 47.1 µM (inactive)

## COC(=O)c1cn(NC(=O)c2ccc(F)cc2)c(=O)c2ccccc12
Cytochrome P450 2C19
  AC50: 17.8 µM (inconclusive)
Cytochrome P450 2C9
  AC50: 39.8 µM (inconclusive)
[5]
  EC50: > 53 µM (inactive)
[6]
  IC50: > 47.1 µM (inactive)

## COc1cccc(C(=O)Nc2nc(O)c3c(n2)CCCC3)c1
H4
  EC50: > 120 µM (not active)
[3]
  EC50: > 120 µM (not active)
[4]
  EC50: 14.5 µM (active)

## O=C(CCCn1cc([N+](=O)[O-])cn1)NC1CCCCCC1
[9]
  EC50: > 112 µM (not active)
[10]
  EC50: > 112 µM (not active)

## COC(=O)CCCC1=CC2=C(c3ccccc3)C(=O)C(C)(OC(=O)C3CCCC3)C(=O)C2=CN1CCN1CCOCC1 (centres undefined)
[7]
  IC50: > 66 µM (inactive)
[8]
  IC50: > 66 µM (inactive)

## CCC1OC(=O)C(C)C(OC2C[C@@](C)(OC)C(O)C(C)O2)C(C)C(O[C@@H]2OC(C)CC(N(C)C)C2O)[C@](C)(O)CC(C)C(=NOCOCCOC)C(C)C(O)[C@]1(C)O (some centres undefined)
[5]
  EC50: > 53 µM (inactive)
[6]
  IC50: > 47.1 µM (inactive)

## COC(=O)C1=C(C)N(Cc2ccccc2)C(=O)N[C@H]1CCc1ccccc1
[5]
  EC50: > 53 µM (inactive)
[6]
  IC50: > 47.1 µM (inactive)

## Cc1cc2cc(CNC(=O)c3ccc(S(=O)(=O)N4CCOCC4)cc3)ccc2[nH]1
[7]
  IC50: > 66 µM (inactive)
[8]
  IC50: > 66 µM (inactive)

## Cc1ccc(-n2ncc(Cl)c2C(=O)NCc2ccccc2)cc1
H4
  EC50: 5.76 µM (active)
[3]
  EC50: 4.06 µM (active)
[4]
  EC50: 3.28 µM (active)

## O=C(NC(=S)Nc1ccc(S(=O)(=O)N2CCCCC2)cc1)c1cccs1
[7]
  IC50: > 66 µM (inactive)
[8]
  IC50: > 66 µM (inactive)

## Cc1cc(C)nc(Nc2nc(=O)c3ccccc3s2)n1
[7]
  IC50: > 66 µM (inactive)
[8]
  IC50: > 66 µM (inactive)

## COC(=O)c1cn(C(=O)/C=C/c2ccc(OC)c(OC)c2)c2ccccc12
H4
  EC50: > 120 µM (not active)
[3]
  EC50: 32.1 µM (active)
[4]
  EC50: 20.2 µM (active)

## CCN(CC(=O)Nc1sc2c(c1C#N)CCCC2)CC(=O)NC1CCS(=O)(=O)C1 (centres undefined)
[9]
  EC50: > 112 µM (not active)
[10]
  EC50: > 112 µM (not active)

## O=C(NC(=S)Nc1ccc(Cc2ccncc2)cc1)c1ccccc1Cl
[7]
  IC50: > 66 µM (inactive)
[8]
  IC50: > 66 µM (inactive)

## COc1ccc2oc(-c3ccncc3)cc(=O)c2c1
[7]
  IC50: > 66 µM (inactive)
[8]
  IC50: > 66 µM (inactive)

## CC(C)C(NC(=O)c1ccc(Cl)cc1Cl)C(=O)N1CCN(S(=O)(=O)c2ccccc2)CC1 (centres undefined)
[11]
  AC50: 21 µM (active)
[1]
  AC50: 48.5 µM (active)

## CCCCOc1ccc(N2C(=O)C(C)CNC2=S)cc1 (centres undefined)
[7]
  IC50: 41.1 µM (inactive)
[8]
  IC50: > 66 µM (inactive)

## COc1ccc(NC(=O)c2cc3ccccc3o/c2=N\NS(=O)(=O)c2ccc(C)cc2)cc1
H4
  EC50: 0.575 µM (active)

## NC(=O)c1ccccc1N/C=C/C(=O)c1ccc(Cl)cc1Cl
[9]
  EC50: 1.1 µM (active)
[10]
  EC50: 8.86 µM (active)

## Cc1oc(/N=C/c2ccc3c(c2)OCO3)c(C#N)c1C
H4
  EC50: > 120 µM (not active)
[3]
  EC50: 38.1 µM (active)
[4]
  EC50: > 120 µM (not active)

## Cc1nc2ccccc2c(=O)n1/N=C/c1cn(-c2ccccc2)nc1-c1cccs1
H4
  EC50: 6.75 µM (active)
[3]
  EC50: 14.8 µM (active)
[4]
  EC50: 5.11 µM (active)
